Measured values taken from patent US9034866B2 (Genentech, Inc., priority 2012, dated 2015).
Several values for one entry are separate records, joined by “and”; a condition that tells them apart may be missing. Identical values can stand only once.

target: nuclear factor-kappa B (NF-kB)-inducing kinase (NIK) (Homo sapiens (Human), UniProt Q99558); assay: NIK Enzyme Inhibition Assay (Transcreener ADP fluorescence polarization); assay type: biochemical; settings: purified NIK 0.2-1 nM, 10 uM ATP, Morrison's quadratic equation; read-out: NIK ADP-FP (Ki uM)
Experimental: NIK Enzyme Inhibition Assay: The ability of the nuclear factor-kappa B (NF-kB)-inducing kinase (NIK) to catalyze the hydrolysis of adenosine-5′-triphosphate (ATP) was monitored using the Transcreener ADP (adenosine-5′-diphosphate) assay (BellBrook Labs). Purified NIK (0.2-1 nM) derived from a baculovirus-infected insect cell expression system was incubated with test compounds for 1-3.5 hours in 50 mM 2-[4-(2-hydroxyethyl)piperazin-1-yl]ethanesulfonic acid buffer (pH 7.2) containing 10 mM MgCl2, 2 mM dithiothreitol, 10 uM ATP, 0.01% Triton X-100, 0.1% gamma-globulins from bovine blood, 1% dimethylsulfoxide (DMSO), 12 ug/mL ADP antibody and 4 nM ADP-AlexaFluor® 633 tracer. Reactions were quenched by the addition of 20 mM 2,2′,2″,2′″-(ethane-1,2-diyldinitrilo)tetraacetic acid and 0.01% Brij 35. The tracer bound to the antibody was displaced by the ADP generated during the NIK reaction, which causes a decrease in fluorescence polarization that was measured by laser excitation at 633 nm with a Fluorescence Correlation Spectroscopy Plus reader (Evotec AG).

Chain of nuclear factor-kappa B (NF-kB)-inducing kinase (NIK) (Q99558 whole entry): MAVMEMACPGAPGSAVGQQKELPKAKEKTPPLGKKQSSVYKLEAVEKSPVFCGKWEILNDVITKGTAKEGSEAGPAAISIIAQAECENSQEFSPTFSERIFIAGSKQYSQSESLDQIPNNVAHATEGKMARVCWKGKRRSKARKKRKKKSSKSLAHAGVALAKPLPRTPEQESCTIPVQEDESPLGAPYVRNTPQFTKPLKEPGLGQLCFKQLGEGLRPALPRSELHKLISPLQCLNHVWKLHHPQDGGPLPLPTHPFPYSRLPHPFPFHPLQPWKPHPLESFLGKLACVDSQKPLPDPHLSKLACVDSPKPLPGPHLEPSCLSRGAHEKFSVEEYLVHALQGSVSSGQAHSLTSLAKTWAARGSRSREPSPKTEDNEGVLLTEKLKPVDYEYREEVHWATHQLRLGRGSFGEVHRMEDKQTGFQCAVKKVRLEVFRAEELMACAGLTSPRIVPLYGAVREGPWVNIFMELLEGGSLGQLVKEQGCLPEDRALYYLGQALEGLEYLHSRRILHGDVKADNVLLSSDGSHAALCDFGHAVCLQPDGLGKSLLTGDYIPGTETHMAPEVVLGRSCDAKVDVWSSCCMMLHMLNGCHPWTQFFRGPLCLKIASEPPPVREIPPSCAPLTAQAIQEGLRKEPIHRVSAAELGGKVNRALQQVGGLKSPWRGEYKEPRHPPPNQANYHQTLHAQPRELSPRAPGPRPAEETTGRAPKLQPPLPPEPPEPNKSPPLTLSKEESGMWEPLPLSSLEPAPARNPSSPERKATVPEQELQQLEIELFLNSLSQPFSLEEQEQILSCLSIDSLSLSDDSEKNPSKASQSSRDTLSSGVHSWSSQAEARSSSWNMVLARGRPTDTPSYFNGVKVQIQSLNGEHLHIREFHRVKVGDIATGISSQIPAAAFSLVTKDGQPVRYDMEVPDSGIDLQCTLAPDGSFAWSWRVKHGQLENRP

Row | Ki | SMILES
1 | 0.037 µM | CC(C)(O)C#Cc1cc2c(cc1F)OCCn1c-2nc(C(N)=O)c1C(=O)NC1CCOC1 (stereo not drawn)
2 | > 5 µM | Cn1cnc(C(C)(O)C#Cc2cc3c(cc2F)OCCc2sc(C(N)=O)nc2-3)c1 (stereo not drawn)
3 | 0.036 µM | CC(O)(C#Cc1ccc2c(c1)-c1nc(C(N)=O)cn1C1CC2C1)CO (stereo not drawn) [Example 181, 10-(3,4-dihydroxy-3-methyl-but-1-ynyl)-5,6,7,12-tetrahydro-5,7-methanoben-zo[c]imidazo[1,2-a]azepine-2-carboxamide]
4 | 0.062 µM | Cc1cc([C@](C)(O)C#Cc2cc3c(cc2C)OCCn2cc(C(N)=O)nc2-3)no1 [Example 38, 9-[(R)-3-hydroxy-3-(5-methyl-isoxazol-3-yl)-but-1-ynyl]-8-methyl-4,5-dihydro-6-oxa-1,3a-diaza-benzo[e]azulene-2-car-boxylic acid amide]
5 | 0.0021 µM | CC(O)(C#Cc1cc2c(cc1F)OCCc1sc(C(N)=O)nc1-2)c1ncn[nH]1 (stereo not drawn) [Example 182, 8-fluoro-9-[3-hydroxy-3-(1H-1,2,4-tria-zol-5-yl)but-1-ynyl]-4,5-dihydro-[I]ben-zoxepino[5,4-d]thiazole-2-carboxamide]
6 | 1.8 µM and 1.1 µM | CC(C)(O)C#Cc1ccc2c(c1)-c1nc(C(N)=O)c(CN3CCC(=O)C3)n1CCO2 [Example 711]
7 | > 1.2 µM | CN1CC[C@](O)(C#Cc2ccc3c(c2)-c2nc(C(N)=O)c(C4CN(C(=O)C5CC5)C4)n2C2CC3C2)C1=O (racemic)
8 | 0.0021 µM | CC(C)(O)C#Cc1cc2c(cc1F)C1CC(C1)n1c-2nc(C(N)=O)c1Cc1ccccc1Cl (racemic)
9 | 0.0036 µM | CC(C)(O)C#Cc1cc2c(cc1F)C1CC(C1)c1c-2nc(C(N)=O)n1Cc1ccccc1Cl
10 | 0.005 µM | CC(O)(C#Cc1cc2c(cc1F)OCCc1sc(C(N)=O)nc1-2)CF (stereo not drawn) [Example 117, 8-fluoro-9-(4-fluoro-3-hydroxy-3-meth-yl-but-1-ynyl)-4,5-dihydro-6-oxa-3-thia-1-aza-benzo[e]azulene-2-carboxylic acid amide]
11 | 0.19 µM | CC(C)(O)C#Cc1cc2c(cc1F)OCCn1c-2nc(C(N)=O)c1-c1nc(C2CC2)no1 (racemic) [Example 188]
12 | 0.026 µM | CC(=O)N1CCN(Cc2c(C(N)=O)nc3n2C2CC(C2)c2cc(F)c(C#CC(C)(C)O)cc2-3)CC1 (racemic)
13 | 0.635 µM | Cn1nc(-c2ccncc2)nc1-c1c(C(N)=O)nc2n1CCOc1cc(F)c(C#CC(C)(C)O)cc1-2 (racemic)
14 | 0.21 µM | CC(=O)N1CCN(Cc2c(C(N)=O)nc3n2CCOc2ccc(C#CC(C)(C)O)cc2-3)CC1
15 | > 5 µM | Cn1cnc(C(C)(O)C#Cc2cc3c(cc2F)OCCn2cc(C(N)=O)nc2-3)c1 (stereo not drawn)
16 | 0.304 µM | CC(O)(C#Cc1cc2c(cc1F)OCCn1cc(C(N)=O)nc1-2)C(=O)N1CC(C#N)C1 (stereo not drawn) [Example 95]
17 | 0.002 µM | CC(O)(C#Cc1cc2c(cc1F)OCCn1cc(C(N)=O)nc1-2)c1cc(CO)on1 (stereo not drawn) [Example 32, 8-fluoro-9-[3-hydroxy-3-(5-hydroxymeth-yl-isoxazol-3-yl)-but-1-ynyl]-4,5-dihy-dro-6-oxa-1,3a-diaza-benzo[c]azulene-2-carboxylic acid amide]
18 | 0.041 µM | COCC1(CNC(=O)c2c(C(N)=O)nc3n2CCOc2cc(F)c(C#CC(C)(C)O)cc2-3)CC1 (racemic) [Example 69]
19 | 0.0072 µM | Cn1nccc1C(O)c1c(C(N)=O)nc2n1C1CC(C1)c1cc(F)c(C#CC(C)(C)O)cc1-2 (racemic)
20 | > 1.2 µM | CC12CCC(O)(C#Cc3ccc4c(c3)-c3nc(C(N)=O)cn3CCO4)C1O2 (stereo not drawn) [Example 428]
21 | 0.006 µM | CC(C)(O)C#Cc1cc2c(cc1F)OCCn1c-2nc(C(N)=O)c1C(=O)NC1COC1 (racemic) [Example 59]
22 | 0.052 µM | NC(=O)c1cn2c(n1)-c1cc(C#CC3(O)CCCC3)ccc1OCC2 [Example 1, 9-(1-hydroxy-cyclopentylethynyl)-4,5-di-hydro-6-oxa-1,3a-diaza-benzo[e]azulene-2-carboxylic acid amide]

Row | Ki | SMILES
23 | 0.0024 µM | Cn1nccc1Cc1c(C(N)=O)nc2n1C1CC(C1)c1cc(F)c(C#CC(C)(C)O)cc1-2
24 | 0.0033 µM | CN1CC[C@@](O)(C#Cc2ccc3c(c2)-n2nc(C(N)=O)cc2C2(COC2)CO3)C1=O [Example 714, (R)-9-((3-hydroxy-1-methyl-2-oxopyrro-lidin-3-yl)ethynyl)-5H-spiro[ben-zo[b]pyrazolo[1,5-d][1,4]oxazepine-4,3′-oxetane]-2-carboxamide]
25 | 0.094 µM | CC(C)(O)C#Cc1ccc2c(c1)-c1nc(C(N)=O)sc1C(C)(O)CO2 (stereo not drawn) [Example 21, 4-hydroxy-9-(3-hydroxy-3-methyl-but-1-ynyl)-4-methyl-4,5-dihydro-6-oxa-3-thia-1-aza-benzo[e]azulene-2-carboxylic acid amide]
26 | 0.057 µM | CC(C)(O)C#Cc1ccc2c(c1)-c1nc(C(N)=O)sc1C(F)(F)CO2 [Example 27, 4,4-diriuoro-9-(3-hydroxy-3-methyl-but-1-ynyl)-4,5-dihydro-6-oxa-3-thia-1-aza-benzo[c]azulene-2-carboxylic acid amide]
27 | 0.034 µM | CC(C)(O)C#Cc1cc2c(cc1F)OCCn1cc(C(N)=O)nc1-2 [Example 5, 8-fluoro-9-(3-hydroxy-3-methyl-but-1-ynyl)-4,5-dihydro-6-oxa-1,3a-diaza-ben-zo[e]azulene-2-carboxylic acid amide]
28 | 0.098 µM | CC(O)(C#Cc1cc2c(cc1F)OCCn1c-2nc(C(N)=O)c1C1CC1)CO (stereo not drawn)
29 | 0.096 µM | CN(C)C1COc2ccc(C#CC(C)(C)O)cc2-c2nc(C(N)=O)sc21 (stereo not drawn) [Example 10, 4-dimethylamino-9-(3-hydroxy-3-meth-yl-but-1-ynyl)-4,5-dihydro-6-oxa-3-thia-1-aza-benzo[e]azulene-2-carboxylic acid amide]
30 | 1.6 µM | C[C@@](O)(C#Cc1ccc2c(c1)-n1nc(C(N)=O)cc1C(F)(F)CO2)c1cccnn1
31 | 0.105 µM | CC(C)(O)C#Cc1cc2c(cc1F)OCCn1c-2nc(C(N)=O)c1C(=O)NC(C)(C)C#N (racemic) [Example 61]
32 | 0.0051 µM | NC(=O)c1cn2c(n1)-c1cc(C#CC3(O)CCc4cccnc43)ccc1OCC2 (racemic)
33 | 0.023 µM | Cc1nn(C)cc1C(O)c1c(C(N)=O)nc2n1CCOc1cc(F)c(C#CC(C)(C)O)cc1-2 (stereo not drawn) [Example 169]
34 | 0.093 µM | CC(C)(O)C#Cc1ccc2c(c1)-c1nc(C(N)=O)sc1C(O)CO2 (stereo not drawn) [Example 12, 4-hydroxy-9-(3-hydroxy-3-methyl-but-1-ynyl)-4,5-dihydro-6-oxa-3-thia-1-aza-benzo[e]azulene-2-carboxylic acid amide]
35 | 1 µM | CC(O)(C#Cc1ccc2c(c1)-n1nc(C(N)=O)cc1CCO2)C1CCCO1 (stereo not drawn) [Example 696]
36 | 0.003 µM | CC(O)(C#Cc1cc2c(cc1F)OCCn1cc(C(N)=O)nc1-2)c1cc(CC#N)on1 (racemic)
37 | 0.033 µM | Cn1cc([C@@H](O)c2c(C(N)=O)nc3n2CCOc2cc(F)c(C#CC(C)(C)O)cc2-3)cn1
38 | 0.025 µM | CC(O)(C#Cc1cc2c(cc1F)OCCn1cc(C(N)=O)nc1-2)c1ncccc1F (stereo not drawn) [Example 252]
39 | 0.028 µM | Cc1nnc(C(C)(O)C#Cc2ccc3c(c2)-c2nc(C(N)=O)cn2CCO3)o1 (stereo not drawn)
40 | > 5 µM | Cc1ncccc1C(C)(O)C#Cc1cc2c(cc1F)OCCn1cc(C(N)=O)nc1-2 (stereo not drawn) [Example 19, 8-fluoro-9-[3-hydroxy-3-(2-methyl-pyri-din-3-yl)-bul-1-ynyl]-4,5-dihydro-6-oxa-1,3a-diaza-benzo[e]azulene-2-carboxy-lic acid amide]
41 | 0.0029 µM | Cc1nc([C@](C)(O)C#Cc2ccc3c(c2)-c2nc(C(N)=O)c(C(O)c4ccnn4C)n2C2CC3C2)no1 (stereo partly drawn)
42 | 0.16 µM | CC(C)N(C)Cc1c(C(N)=O)nc2n1C1CC(C1)c1cc(F)c(C#CC(C)(C)O)cc1-2 [Example 223]
43 | 0.021 µM | CC(C)(O)C#Cc1cc2c(cc1F)C1CC(C1)n1c-2nc(C(N)=O)c1CN1CCOCC1
44 | 0.03 µM | Cc1cc([C@](C)(O)C#Cc2ccc3c(c2)-c2nc(C(N)=O)c(C(=O)N(C)C)n2C2CC3C2)no1 (racemic)

Row | SMILES | Ki
45 | CNC(=O)c1c(C(N)=O)nc2n1C1CC(C1)c1cc(F)c(C#CC(C)(O)CO)cc1-2 (stereo not drawn) | 0.01 µM
46 | NC(=O)c1cn2c(n1)-c1cc(C#CC3(O)CC4CCC(C3)N4)ccc1OCC2 (stereo not drawn) [Example 31, 9-(3-hydroxy-8-aza-bicyclo[3.2.1]oct-3-ylethynyl)-4,5-dihydro-6-oxa-1,3a-diaza-benzo[e]azulene-2-carboxylic acid amide] | > 5 µM
47 | CC(O)(C#Cc1cc2c(cc1F)OCCn1cc(C(N)=O)nc1-2)C(N)=O (stereo not drawn) [Example 52, 9-(3-carbamoyl-3-hydroxy-but-1-ynyl)-8-fluoro-4,5-dihydro-6-oxa-1,3a-diaza-benzo[e]azulene-2-carboxylic acid amide] | 3.6 µM
48 | CNC(=O)C(C)(O)C#Cc1cc2c(cc1F)OCCn1cc(C(N)=O)nc1-2 (stereo not drawn) | 1.4 µM
49 | Cn1ccnc1C(C)(O)C#Cc1cc2c(cc1F)OCCn1cc(C(N)=O)nc1-2 (stereo not drawn) | 0.239 µM
50 | Cc1cc([C@](C)(O)C#Cc2ccc3c(c2)-c2nc(C(N)=O)cn2CC(CN2CCOCC2)O3)no1 (stereo partly drawn) [Example 597, 10-((R)-3-hydroxy-3-(5-methylisoxazol-3-yl)but-1-yn-1-yl)-6-(morpholinometh-yl)-5,6-dihydrobenzo[f]imidazo[1,2-d][1,4]oxazepine-2-carboxamide] | 0.28 µM
51 | Cc1cc([C@](C)(O)C#Cc2ccc3c(c2)-c2nc(C(N)=O)c(C(=O)NCc4cccnc4)n2CCO3)no1 [Example 581, (R)-10-(3-hydroxy-3-(5-methylisoxazol-3-yl)but-1-yn-1-yl)-N3-(pyridin-3-ylmeth-yl)-5,6-dihydrobenzo[f]imidazo[1,2-d][1,4]oxazepine-2,3-dicarboxamide] | 0.001 µM
